From the NIST ThermoML archive (doi:10.1016/j.fluid.2006.05.032)

Details: Liquid, Vibrating tube method

CCCO [propan-1-ol]
mass density [kg/m3]
Details | 293.15 K | 303.15 K | 313.15 K | 323.15 K | 333.15 K | 343.15 K | 353.15 K
100 kPa | 803.5 | 795.2 | 787.6 | 779.3 | 770.5 | 761 | 752.2
5000 kPa | 807.3 | 799.2 | 791.9 | 783.7 | 775.4 | 766 | 757.6
10000 kPa | 810.9 | 802.9 | 795.9 | 788 | 780 | 770.7 | 762.7
15000 kPa | 814.3 | 806.7 | 799.7 | 792 | 784.3 | 775.3 | 767.6
20000 kPa | 817.7 | 810.1 | 803.3 | 795.8 | 788.4 | 779.6 | 772.1
25000 kPa | 821 | 813.6 | 806.8 | 799.7 | 792 | 783.7 | 776.3
30000 kPa | 824 | 816.7 | 810.2 | 803.2 | 795.7 | 787.6 | 780.4
35000 kPa | 827 | 819.8 | 813.5 | 806.6 | 799.2 | 791.2 | 784.1
40000 kPa | 829.9 | 822.9 | 816.6 | 809.9 | 802.6 | 794.7 | 787.7
45000 kPa | 832.7 | 825.8 | 819.7 | 813 | 805.9 | 798.3 | 791.8
50000 kPa | 835.4 | 828.8 | 822.7 | 816.1 | 809.1 | 801.6 | 795.1
55000 kPa | 838.1 | 831.6 | 825.5 | 819 | 812.3 | 804.6 | 798.5
60000 kPa | 840.7 | 834.2 | 828.3 | 821.8 | 815.2 | 807.7 | 801.7
65000 kPa | 843.2 | 837 | 831 | 824.6 | 818.1 | 810.6 | 805

Cc1ccccc1 [toluene]
mass density [kg/m3]
Details | 293.15 K | 303.15 K | 313.15 K | 323.15 K | 333.15 K | 343.15 K | 353.15 K
100 kPa | 867.1 | 857.5 | 847.8 | 838.4 | 828.8 | 819.4 | 809.7
5000 kPa | 870.6 | 861.4 | 852 | 842.7 | 833.5 | 824.5 | 815.1
10000 kPa | 874.2 | 865.1 | 856.1 | 847 | 838.2 | 829.3 | 820.3
15000 kPa | 877.6 | 869 | 859.9 | 851.1 | 842.6 | 833.9 | 825.3
20000 kPa | 881.1 | 872.4 | 863.5 | 855 | 846.6 | 838.1 | 829.9
25000 kPa | 884.2 | 875.8 | 867.1 | 858.9 | 850.5 | 842.3 | 834
30000 kPa | 887.3 | 879 | 870.5 | 862.5 | 854.3 | 846.2 | 838.2
35000 kPa | 890.3 | 882.1 | 873.8 | 866 | 857.9 | 850.1 | 842.2
40000 kPa | 893.3 | 885.2 | 877 | 869.4 | 861.4 | 853.7 | 846.1
45000 kPa | 896.1 | 888.2 | 880.2 | 872.5 | 864.8 | 857.4 | 849.8
50000 kPa | 898.9 | 891.1 | 883.3 | 875.7 | 868.1 | 860.8 | 853.3
55000 kPa | 901.6 | 894 | 886.2 | 878.7 | 871.4 | 864.2 | 856.7
60000 kPa | 904.2 | 896.7 | 889 | 881.7 | 874.5 | 867.4 | 860.1
65000 kPa | 906.7 | 899.2 | 891.8 | 884.6 | 877.5 | 870.3 | 863.5
